Laboratory results: patent EP0036436A1, “Methyl 11alpha,15R-dihydroxy-16,18-methano-16-methyl-9-oxoprost-13E-en-1-oate, a process for its production and composition containing it” (MILES LABORATORIES, INC., priority 1980, dated 1981)
Where “and” joins values, the source holds several entries; their conditions need not be identical. Equal values may be shown once.

Key:
tracheobronchial tract = assay: irritancy to the tracheobronchial tract: 10 minute aerosol challenge in conscious cats; type: in vivo; conditions: for times less potent an irritant than PGE1: computer program of relative potencies on the data of Tables I and II, PGE1 as standard; for %ΔRR = percent change in respiratory rate / Cough: conscious cats, 10 minute aerosol challenge
Description: PGE1 and the test compounds were dissolved in absolute ethanol to give stock solutions of 10 mg/ml. These stock solutions and an ethanol vehicle were diluted using isotonic saline adjusted with phosphate buffer to pH 7.2.
Specific pathogen free cats (Category III) of either sex from the Laboratory Animals Centre were used. Conscious cats (2-4 kg) were restrained in an adjustable Perspex box with their heads protruding into a separate Perspex chamber with a seal around the neck. The respiratory pattern and rate of each cat was recorded via a Fleisch head pneumotachograph protruding into the top of the chamber. Sound was recorded by a microphone also protruding into the chamber. An aerosol of 1-8µm particle size was generated by a Monaghan 670 Ultrasonic nebulizer and passed to the cat's face via an opening in the front of the chamber. Each cat was challenged initially for 10 minutes with an aerosol of isotonic saline adjusted with phosphate buffer to pH 7.2 plus the appropriate concentration of ethanol. This control challenge was followed by a 10 minute aerosol challenge of the test compound of PGE1 in the appropriate vehicle. This 10 minute challenge period is much greater than the brief period of inhalation likely to be used in man, but it does produce a larger number of coughs and enables us to determine the potency of the analogue relative to PGE1 in producing other unwanted side effects.
Seven days were left between successive challenges to avoid the development of tolerance. Both drugs were tested in 5 cats using a wide range of concentrations of aerosol stock solutions. Each cat was observed during and up to 24 hours after the experiment for other side effects, e.g., sedation, diarrhea, and salivation.

human bronchial muscle = assay: relaxation of the human bronchial muscle relative to PGE1; type: cell-based; conditions: for relative potency to PGE1: relaxation of human bronchial muscle, PGE1 as standard
Description: The compounds prepared as described in Examples I and II, i.e., TR-4681 and TR-4690, were tested to determine their activity in the relaxation of the human bronchial muscle relative to PGE1. […] If potency as a bronchodilator were the only criterion upon which a drug of this type were judged, TR-4690 would be preferred. […] This screen and the results observed in using it to test TR-4681 and TR-4690 are as follows: […]

| SMILES | times less potent an irritant to the tracheobronchial tract than TR-4690 (tracheobronchial tract; compared with TR-4690) | times less potent an irritant than PGE1 (tracheobronchial tract) | %ΔRR = percent change in respiratory rate (tracheobronchial tract; Conc 1.0 µg/ml) | Cough (tracheobronchial tract; Conc 1.0 µg/ml) | %ΔRR = percent change in respiratory rate (tracheobronchial tract; Conc 10.0 µg/ml) | Cough (tracheobronchial tract; Conc 10.0 µg/ml) | %ΔRR = percent change in respiratory rate (tracheobronchial tract; Conc 50.0 µg/ml) | Cough (tracheobronchial tract; Conc 50.0 µg/ml) | %ΔRR = percent change in respiratory rate (tracheobronchial tract; Conc 100.0 µg/ml) | Cough (tracheobronchial tract; Conc 100.0 µg/ml) | %ΔRR = percent change in respiratory rate (tracheobronchial tract; Conc 500.0 µg/ml) | Cough (tracheobronchial tract; Conc 500.0 µg/ml) | relative potency to PGE1 (human bronchial muscle) | times more potent an irritant than TR-4681 (tracheobronchial tract; compared with TR-4681) | times more potent than TR-4681 as a bronchodilator (human bronchial muscle; relaxing human bronchial muscle, compared with TR-4681) |
| --- | --- | --- | --- | --- | --- | --- | --- | --- | --- | --- | --- | --- | --- | --- | --- |
| CCC1CC(C)([C@H](O)/C=C/[C@H]2[C@H](O)CC(=O)[C@@H]2CCCCCCC(=O)OC)C1 (stereo partly drawn) [TR-4681, Methyl 11α,15R-dihydroxy-16,18-methano-16-methyl-9-oxoprost-13E-en-l-oate] | twenty-five times less potent | approximately 50 times | 0% | 0 | +3% | 0 | +41% | 16 | +41% | 11 | +67% | 14 | 1.33 |  |  |
| CCCCC[C@H](O)/C=C/[C@H]1[C@H](O)CC(=O)[C@@H]1CCCCCCC(=O)O [PGE1, prostaglandin E1] |  |  |  |  |  |  |  |  |  | 33 and 31 |  | 58 and 63 |  |  |  |
| COC(=O)CCCCCC[C@H]1C(=O)C[C@@H](O)[C@@H]1/C=C/[C@@H](O)C1(C)CCC1 [TR-4690, Methyl 16,19-cyclo-11α,15R-dihydroxy-16-methyl-20-nor-9-oxoprost-13E-en-l-oate] |  | approximately 2 times | +5% | 6 | +11% | 5 | +26% | 15 | +21% | 1 | +39% | 33 | 3.9 | approximately 25 times | approximately 3 times |
